In brackets after ≈: the same amount, converted by molar mass.
Tests used:
[1] = Solubility of compound in 0.01 N HCl; format: physicochemical
[2] = Solubility of compound in PBS; format: physicochemical
[3] = Solubility of compound in SIF; format: physicochemical
CYP3A4 = CYP3A4 (Homo sapiens, UniProt P08684); test: (§1) Inhibition of CYP3A4 (unknown origin) in presence of NADPH; format: ADME
Rattus norvegicus = organism: Rattus norvegicus; test: Unbound clearance in Sprague-Dawley rat at 5 ug/ml by equilibrium dialysis method; format: ADME, organism-based; conditions: in vivo
[4] = Half life in Sprague-Dawley rat; format: ADME, organism-based; conditions: in vivo
[5] = Clearance in Sprague-Dawley rat at 0.25 mg/kg, iv; format: ADME, organism-based; conditions: in vivo
Mus musculus [6] = test: In vivo inhibition of HGF-induced phosphorylation of MET in Balb/c mouse liver assessed as time required for >90% inhibition at 30 mg/kg administered via oral gavage; format: functional
Plasma [7] = test: Unbound plasma concentration in Balb/c mouse at 30 mg/kg, administered via oral gavage measured at 6 hrs; format: ADME, organism-based; conditions: in vivo
Mus musculus [8] = test: In vivo inhibition of HGF-induced phosphorylation of MET in Balb/c mouse liver assessed as phosphorylated cMET level at 10 mg/kg administered via oral gavage followed by HGF injection 24 hrs post dose by electrochemiluminescence immunoassay relative to control; format: functional; set-up: scale not given: the % may be the effect or the level left
[9] = Oral bioavailability in Sprague-Dawley rat at 2 mg/kg; format: ADME, organism-based; conditions: in vivo
[10] = Fraction unbound in Sprague-Dawley rat plasma at 5 ug/ml by equilibrium dialysis method; format: ADME, cell-free
[11] = Fraction unbound in mouse plasma at 5 ug/ml by equilibrium dialysis method; format: ADME, cell-free
[12] = Fraction unbound in human plasma at 5 ug/ml by equilibrium dialysis method; format: ADME, cell-free
[13] = Clearance in Beagle dog at 0.425 mg/kg, iv; format: ADME, organism-based, Canis lupus familiaris; conditions: in vivo
[14] = Volume of distribution at steady state in Sprague-Dawley rat; format: ADME, organism-based; conditions: in vivo, read-out: Vdss
[15] = Intrinsic clearance in rat liver microsomes; format: ADME; conditions: read-out: CLH
[16] = Intrinsic clearance in mouse liver microsomes; format: ADME; conditions: read-out: CLH
[17] = Intrinsic clearance in human liver microsomes; format: ADME; conditions: read-out: CLH
Canis familiaris = organism: Canis familiaris; test: Unbound clearance in Beagle dog at 5 ug/ml by equilibrium dialysis method; format: ADME, organism-based, Canis lupus familiaris; conditions: in vivo
[18] = Volume of distribution at steady state in iv dosed Beagle dog; format: ADME, organism-based, Canis lupus familiaris; conditions: in vivo, read-out: Vdss
[19] = Half life in iv dosed Beagle dog; format: ADME, organism-based, Canis lupus familiaris; conditions: in vivo
[20] = AUC(0 to infinity) in Beagle dog at 10 mg/kg,po; format: ADME, organism-based, Canis lupus familiaris; set-up: dose 10 mg/kg, route oral, time infinity; conditions: in vivo
[21] = Oral bioavailability in Beagle dog at 10 mg/kg; format: ADME, organism-based, Canis lupus familiaris; conditions: in vivo
[22] = AUC(0 to infinity) in Beagle dog at 30 mg/kg, po; format: ADME, organism-based, Canis lupus familiaris; set-up: dose 30 mg/kg, time infinity, route oral; conditions: in vivo
Mus musculus [23] = test: In vivo inhibition of HGF-induced phosphorylation of MET in Balb/c mouse liver assessed as phosphorylated cMET level at 10 mg/kg administered via oral gavage followed by HGF injection 1 hr post dose by electrochemiluminescence immunoassay relative to control; format: functional; set-up: scale not given: the % may be the effect or the level left
Mus musculus [24] = test: In vivo inhibition of HGF-induced phosphorylation of MET in Balb/c mouse liver assessed as phosphorylated cMET level at 10 mg/kg administered via oral gavage followed by HGF injection 3 hrs post dose by electrochemiluminescence immunoassay relative to control; format: functional; set-up: scale not given: the % may be the effect or the level left
Mus musculus [25] = test: In vivo inhibition of HGF-induced phosphorylation of MET in Balb/c mouse liver assessed as phosphorylated cMET level at 10 mg/kg administered via oral gavage followed by HGF injection 6 hrs post dose by electrochemiluminescence immunoassay relative to control; format: functional; set-up: scale not given: the % may be the effect or the level left
Mus musculus [26] = test: In vivo inhibition of HGF-induced phosphorylation of MET in Balb/c mouse liver assessed as phosphorylated cMET level at 10 mg/kg administered via oral gavage followed by HGF injection 9 hrs post dose by electrochemiluminescence immunoassay relative to control; format: functional; set-up: scale not given: the % may be the effect or the level left
Mus musculus [27] = test: In vivo inhibition of HGF-induced phosphorylation of MET in Balb/c mouse liver assessed as phosphorylated cMET level at 10 mg/kg administered via oral gavage followed by HGF injection 12 hrs post dose by electrochemiluminescence immunoassay relative to control; format: functional; set-up: scale not given: the % may be the effect or the level left
[28] = Oral bioavailability in Beagle dog at 30 mg/kg; format: ADME, organism-based, Canis lupus familiaris; conditions: in vivo
Cytochrome P450 3A4 [29] = biological target: T1, Cytochrome P450 3A4 (Homo sapiens, UniProt P08684); test: as §1; format: ADME
Cytochrome P450 3A4 [30] = biological target: T1, Cytochrome P450 3A4; test: Inhibition of CYP3A4 (unknown origin) in absence of NADPH; format: ADME
Mus musculus [31] = test: In vivo inhibition of HGF-induced phosphorylation of MET in Balb/c mouse liver assessed as time required for >90% inhibition at 10 mg/kg administered via oral gavage; format: functional
Plasma [32] = test: Unbound plasma concentration in Balb/c mouse at 10 mg/kg, administered via oral gavage measured at 12 hrs; format: ADME, organism-based; conditions: in vivo
[33] = Clearance in Beagle dog at 0.713 mg/kg, iv; format: ADME, organism-based, Canis lupus familiaris; conditions: in vivo
[34] = (§2) Antitumor activity against mouse NIH-3T3/TPR-Met cells xenografted in CD1 mouse assessed as tumor growth inhibition administered as oral gavage, qd over 22 days; format: functional; conditions: NIH3T3, po, 528 h
Mus musculus [35] = test: as §2; format: functional
Mus musculus [36] = test: Toxicity in CD1 mouse xenografted with mouse NIH-3T3/TPR-Met cells assessed as effect on body weight at 0.1 to 10 mg/kg, qd administered as oral gavage over 22 days; format: organism-based; conditions: in vivo, 528 h
Plasma [37] = test: Unbound plasma concentration in Balb/c mouse at 10 mg/kg, administered via oral gavage measured at 6 hrs; format: ADME, organism-based; conditions: in vivo
[38] = Clearance in Sprague-Dawley rat at 0.3 mg/kg, iv; format: ADME, organism-based; conditions: in vivo
[39] = biological target: Hepatocyte growth factor receptor (Homo sapiens, UniProt P08581)
Description: Inhibition of HGF-mediated MET autophosphorylation in human PC3 cells preincubated for 1 hr followed by stimulation with human HGF measured after 10 mins by electrochemiluminescence immunoassay

Plasma [40] = test: Unbound plasma concentration in mouse at 10 mg/kg, po measured at 9 hrs; format: ADME, organism-based; conditions: in vivo

Compound | solubility [2] [µg/mL] | CL free (Rattus norvegicus) [mL/min/kg] | half-life [4] [h] | clearance [5] [mL/min/kg] | Activity (Mus musculus [8]) [%] | bioavailability [9] [%] | fraction unbound at 5 ug/ml [10] | fraction unbound at 5 ug/ml [11] | fraction unbound at 5 ug/ml [12] | Vd [14] [L/kg] | microsomal CLint [15] [µL/min/mg] | microsomal CLint [16] [µL/min/mg] | microsomal CLint [17] [µL/min/mg] | Activity (Mus musculus [23]) [%] | Activity (Mus musculus [24]) [%] | Activity (Mus musculus [25]) [%] | Activity (Mus musculus [26]) [%] | Activity (Mus musculus [27]) [%] | other results
COc1cnc2c(NCc3nnc4ccc(-c5cc(C)ns5)nn34)ccnc2c1 | 3 (≈ 7.42 µM) | 433 | 1.8 | 3.17 |  |  |  |  |  |  |  |  |  |  |  |  |  |  | solubility [1]: > 200 µg/mL; solubility [3]: 13 µg/mL (≈ 32.1 µM); IC50 (CYP3A4): > 50 µM; Time (Mus musculus [6]): 6 h; Cp(f) (Plasma [7]): 9 nM
COCCOc1cnc2ccn([C@H](C)c3nnc4ccc(-c5cc(C)no5)cn34)c(=O)c2c1 |  | 25 | 2.4 | 4.83 | 50 | 59 | 0.19 | 0.435 | 0.338 | 1 | 9 | 23 | 7 | 109 | 109 | 108 | 108 | 95 | clearance [13]: 5 mL/min/kg; CL free (Canis familiaris): 11.3 mL/min/kg; Vd [18]: 1.4 L/kg; half-life [19]: 4.3 h; AUC(0-inf) [20]: 19300 ng·h/mL; bioavailability [21]: 53%; AUC(0-inf) [22]: 94100 ng·h/mL; bioavailability [28]: 87%
COCCOc1cnc2ccc([C@H](C)n3nnc4ccn(-c5cc(C)ns5)c(=O)c43)cc2c1 | 9 (≈ 19.5 µM) | 517 | 3.4 |  |  |  |  |  |  |  |  |  |  |  |  |  |  |  | IC50 (Cytochrome P450 3A4 [29]): 21 µM; IC50 (Cytochrome P450 3A4 [30]): 21 µM; Time (Mus musculus [31]): 12 h; Cp(f) (Plasma [32]): 20 nM
COCCOc1cnc2ccn([C@H](C)c3nnc4c(F)cc(-c5cnn(C)c5)cn34)c(=O)c2c1 [AMG-337] |  | 26.7 | 3 | 4.5 | 51 | 30 | 0.174 | 0.366 | 0.419 | 0.9 | 6 | 8 | 9 | 101 | 98 | 98 | 92 | 92 | clearance [33]: 3.83 mL/min/kg; CL free (Canis familiaris): 7.67 mL/min/kg; Vd [18]: 1.1 L/kg; half-life [19]: 5.9 h; AUC(0-inf) [20]: 21000 ng·h/mL; bioavailability [21]: 49%; AUC(0-inf) [22]: 82600 ng·h/mL; ED50 [34]: 0.3 mg/kg; ED90 [34]: 0.8 mg/kg; Activity (Mus musculus [35]): Dose-dependent effect; Activity (Mus musculus [36]): Non-toxic; bioavailability [28]: 64%
COCCOc1cnc2ccn([C@H](C)c3nnc4c(F)cc(-c5cc(C)no5)cn34)c(=O)c2c1 |  | 40 | 2.9 | 3.33 | 28 | 54 | 0.08 | 0.317 | 0.409 | 0.7 | 16 | 14 | 20 | 101 | 100 | 99 | 99 | 51 | 
COc1cnc2ccn([C@H](C)c3nnc4ccc(-c5cnn(C)c5)cn34)c(=O)c2c1 |  | 53.3 | 1.7 | 10.8 |  | 36 | 0.206 | 0.409 | 0.286 | 1.2 | 9 | 7 | < 5 |  |  |  |  |  | 
COc1cnc2ccn([C@H](C)c3nnc4c(F)cc(-c5cnn(C)c5)cn34)c(=O)c2c1 |  | 15 | 3.6 | 2 |  | 43 | 0.139 | 0.353 | 0.309 | 0.5 | 12 | 7 | < 5 |  |  |  |  |  | 
COCCOc1cnc2ccc([C@H](C)c3nnc4c(F)cc(-c5cc(C)no5)cn34)cc2c1 | 52 (≈ 116 µM) | 433 | 4.2 |  |  |  |  |  |  |  |  |  |  |  |  |  |  |  | solubility [1]: > 200 µg/mL; solubility [3]: 126 µg/mL (≈ 282 µM); IC50 (Cytochrome P450 3A4 [29]): > 50 µM; IC50 (Cytochrome P450 3A4 [30]): > 50 µM; Time (Mus musculus [31]): 6 h; Cp(f) (Plasma [37]): 141 nM
C[C@H](c1nnc2c(F)cc(-c3cnn(C)c3)cn12)n1ccc2ncccc2c1=O |  | 17 | 4 | 4.67 |  | 31 | 0.271 | 0.376 | 0.478 | 0.7 | 8 | < 5 | < 5 |  |  |  |  |  | 
COCCOc1cnc2ccn([C@H](C)c3nnc4ccc(-c5cnn(C)c5)cn34)c(=O)c2c1 |  | 40 | 1.8 | 11.7 |  | 25 | 0.296 | 0.424 | 0.498 | 1.3 | < 5 | 7 | 8 |  |  |  |  |  | 
COc1cnc2ccn([C@H](C)c3nnc4c(F)cc(-c5cc(C)no5)cn34)c(=O)c2c1 |  |  | 1.1 | 7.67 |  | 31 |  |  |  | 0.5 |  |  |  |  |  |  |  |  | 
COc1ccc2c(OCc3nnc4ccc(-c5cc(F)c(F)c(F)c5)nn34)ccnc2c1 | 4 (≈ 9.15 µM) | 967 | 3.5 |  |  |  |  |  |  |  |  |  |  |  |  |  |  |  | solubility [1]: 85 µg/mL (≈ 194 µM); solubility [3]: 17 µg/mL (≈ 38.9 µM); clearance [38]: 1 mL/min/kg; Time (Mus musculus [6]): 6 h; Cp(f) (Plasma [7]): 34 nM; IC50 [39]: 0.008 µM
Cc1cc(-c2cc(F)c3nnc([C@@H](C)n4ccc5ncccc5c4=O)n3c2)on1 |  | 31.7 | 0.8 | 6.33 | 12 | 44 | 0.196 | 0.245 | 0.32 | 0.4 | 8 | < 5 | 14 | 100 | 101 | 98 | 91 | 40 | TDI (Cytochrome P450 3A4 [29]; human): Not Active; TDI (Cytochrome P450 3A4 [30]; human): Not Active; Cp(f) (Plasma [40]): 193 nM

— ChEMBL document CHEMBL3784965, “Discovery of (R)-6-(1-(8-Fluoro-6-(1-methyl-1H-pyrazol-4-yl)-[1,2,4]triazolo[4,3-a]pyridin-3-yl)ethyl)-3-(2-methoxyethoxy)-1,6-naphthyridin-5(6H)-one (AMG 337), a Potent and Selective Inhibitor of MET with High Unbound Target Coverage and Robust In Vivo Antitumor Activity” (J Med Chem, 2016)
